Type in all cases: cell-based
Experiment [1] has as its system DAOY cells. Put plainly: MTT cell viability assay, DAOY. On the procedure:
(§1) This assay was carried out using thiazolyl blue tetrazolium bromide (MTT; Sigma), as described in previous studies.12 Cell viability was calculated using the formula: (OD of experimental well/OD of control well) × 100%.
(§2) Figure 1 High Levels of IAPs in MB Cells Correspond to Sensitivity to IAP Inhibitors LBW242 or LCL161. A, The levels of IAPs and p21 in MB cell lines DAOY, D283MED and normal controls HA‐h and BJ were determined by immunoblotting. Their levels in MB cells were quantitated, normalized by GAPDH, presented in a bar graph, and compared to those in HA‐h cells. B, DAOY, D283MED, HA‐h, and BJ cell lines were treated with LBW242 or LCL161 at different concentrations (0, 5, 10, 20, and 40 μmol/L) and DMSO (control) for 72 h. Cell viability was determined by MTT assay. Data are represented as mean ± SEM of three independent experiments (*P < 0.05, **P < 0.01, and ***P < 0.005)

The test system of experiment [2] is BJ cells (normal fibroblast cell line). Description: MTT cell viability assay, BJ. Particulars: for IC50: BJ, MTT; for effect on BJ cell proliferation: 30 μmol/L, 72 h. The protocol:
as §1, §2
Background: Tetrazolium assays rely on reduction of a dye to a coloured formazan, in cell work by metabolically active cells.

Experiment [3] concerns D283MED cells. Put plainly: MTT cell viability assay, D283MED. On the procedure: as §1, §2
Experiment [4] concerns DAOY cells. Put plainly: Apoptosis by Annexin V/PI and FACS, DAOY. The note with it: Annexin V‐positive population by FACS. A general note: In flow cytometry, cells or beads pass a laser one at a time.
For experiment [5], the system named is DAOY cells. Description: Cell cycle analysis (PI, FACS), DAOY. Particulars: siRNA with DMSO control, vincristine or cisplatin, Fig. S2. The protocol:
(§3) MB cells were harvested following treatment with reagents. Cells were fixed with 70% ethanol, and then stored at −20°C overnight. Subsequent to equilibrating to room temperature, the cells were permeabilized with PBS containing 0.5% Triton X‐100 and 0.05% RNAse followed by staining with 50 μg/mL propidium iodide (PI; Sigma) at 4°C for 30 minutes. Finally, DNA content was detected by fluorescence‐activated cell sorting (FACS; Beckman Coulter Epics XL, Brea, CA, USA), and data were analyzed by EXPO32 ADC software (Beckman‐Coulter, USA).
(§4) A, MB cells were treated with DMSO (control), vincristine (1.25 nmol/L for DAOY and 2.5 nmol/L for D283MED), or cisplatin (0.31 μmol/L for DAOY and 0.625 μmol/L for D283MED), or in combination with LCL161 (10 μmol/L) or LBW242 (10 μmol/L) for 72 h. Thereafter, cells were harvested and their DNA contents were analyzed by FACS. B, The proportion of each cell cycle compartment was shown in bar graphs.

Experiment [6] relates to HA‐h cells (human astrocyte‐hippocampal). Put plainly: MTT cell viability assay, HA‐h. The note with it: for IC50: HA‐h, MTT; for effect on HA‐h cell proliferation: 30 μmol/L, 72 h. The protocol: as §1, §2
Experiment [7] deals with D283MED cells. Description: Cell cycle analysis (PI, FACS), D283MED. Particulars: siRNA with DMSO control, vincristine or cisplatin, Fig. S2. The protocol:
as §3, §4

The test system of experiment [8] is D283MED cells. Description: Apoptosis by Annexin V/PI and FACS, D283MED. Particulars: Annexin V‐positive population by FACS.
The next experiment has as its system p21. Put plainly: Immunoblotting of p21 protein in MB cells. Particulars: DAOY and D283MED. From the text:
(§5) Antibody against XIAP, cIAP2, p21, or p53 was purchased from Cell Signaling Technology (Danvers, MA, USA); antibody for detection of cIAP1, cIAP1/2, p27, p16, GAPDH, cyclin A, or cyclin B1 was purchased from Santa Cruz Biotechnology (Dallas, TX, USA); antibodies against CDK1 and CDK2 were bought from Millipore (Burlington, MA, USA) and Upstate Biotechnology, respectively. The blotting membrane was developed using enhanced chemiluminescence (ECL) substrate (Millipore), and analyzed by densitometry and Image J (National Institutes of Health, USA).
(§6) Figure 4 IAPs Inhibition Increases the Protein Levels of p21, which are Governed by Proteasomal Degradation. A, DAOY and D283MED cells were incubated with LBW242 (10 μmol/L) for 0‐360 min. Total cell lysates were collected at different time points and then subjected to immunoblotting. B, The protein levels of cIAP1 and p21 were quantitated, normalized by the levels of GAPDH, and shown in the curve graphs. C, MB cells were transfected with siRNAs against cIAP1 or cIAP2, and nontargeting (NT) siRNA, and protein levels of cIAP1, cIAP2, and p21 were detected by immunoblotting. D, MB cells were treated with MG‐132, CHX, and MNL4924 to verify p21 protein degradation. The levels of p21 were analyzed by immunoblotting

Experiment [9] relates to MB cells (DAOY and D283MED). Description: MTT cell viability / proliferation, stated for MB cells together. The note with it: 30 μmol/L, 72 h. The protocol:
as §1, §2

Experiment [10] has as its system CDK1, CDK2, cyclin A and cyclin B1. Description: Immunoblotting of G2/M transition‐related proteins in MB cells. Particulars: 72 h.
Source text: as §5, §4
Background: Immunoblotting shows a protein as a band on a membrane.

The subject of a further experiment is cIAP1. Put plainly: Immunoblotting of IAPs in MB cells, time course. The note with it: 10 μmol/L, in 60 minutes, DAOY and D283MED.
Source text: as §5, §6

In a further experiment the test system is ubiquitination of p21. Put plainly: Immunoprecipitation of p21, ubiquitination (Ub‐HA). Particulars: MB cells, in the presence of MG‐132 for 6 hours. The protocol: (§7) To observe ubiquitination or neddylation of p21, anti‐p21 antibody (Cell Signaling Technology) and Meg‐Beads‐Protein G (TOOLs) were added into total cell lysates collected from MB cells after transfected with plasmid overexpressing ubiquitin‐hemagglutinin (HA; Addgene, Cambridge, MA, USA) or NEDD8‐HA (Addgene) and treated with MG‐132 for 6 hours. Thereafter, immunoprecipitates were analyzed by immunoblotting with anti‐HA antibody (Sigma).
(§8) Figure 6 IAP Antagonist LBW242 Attenuates p21‐Interacted cIAP1 Expression and Neddylation of p21. A, To examine the ubiquitination of p21, MB cells were transfected with the plasmid carrying ubiquitin (Ub)‐HA and then treated with LBW242 combined with MG‐132 for 6 h. Total cell lysates were used for immunoprecipitation of p21, and subsequently applied to immunoblotting for detection of Ub‐HA, cIAP1, and cIAP2. B, To detect the neddylation of p21, MB cells were transfected with the plasmid overexpressing NEDD8‐HA, treated with MG‐132 and LBW242, and then subjected to immunoprecipitation. C, To examine whether cIAP1 dominates neddylation of p21, MB cells were co‐transfected with cIAP1 siRNA and NEDD8‐HA overexpressed plasmid, treated with MG‐132 for 6 h, and then applied to immunoprecipitation. D, DAOY cells were treated with MG‐132 for 6 h, and stained by immunofluorescence with anti‐cIAP1, anti‐cIAP2, and anti‐p21 antibodies. […]

The next experiment deals with p21 RNA. Description: RT‐PCR analysis of p21 RNA in MB cells. Particulars: DAOY and D283MED. From the text: Total RNA was extracted using trizole reagent (Easypure Total RNA Reagent) and converted into cDNA product using iScript cDNA Synthesis Kit (BIO‐RAD, Hercules, CA, USA). The cDNA product was mixed with PCR Master Mix reagent (Promega, Madison, WI, USA) and PCR primers, and then subjected to 1% agarose gel electrophoresis. The target gene expression was normalized by GAPDH. Primer sequences for p21 are 5′‐[…]‐3′ (forward) and 5′‐GGGCTTCCTCTTGGA‐GAAGAT‐3′ (reverse); primer sequences for cIAP1 are 5′‐[…]‐3′ (forward) and 5′‐[…]‐3′ (reverse); primer sequences for cIAP2 are 5′‐[…]‐3′ (forward) and 5′‐CAAGTAGATGAGGGTAA‐CTGGC‐3′ (reverse); primer sequences for GAPDH are 5′‐TGAAGGTCGGAGTCA‐ACGGATTTGGT‐3′ (forward) and 5′‐[…]‐3′ (reverse).

Another experiment relates to neddylation of p21. Description: Immunoprecipitation of p21, neddylation (NEDD8‐HA). The note with it: MB cells, in the presence of MG‐132 for 6 hours. The protocol: as §7, §8
Where [11] appears, read: cisplatin 72 h, with or without siRNA transfection.
Setting [12] is: cisplatin alone or with IAP inhibitor (10 μmol/L).
Setting [13] is: Homo sapiens, vincristine alone or with IAP inhibitor (10 μmol/L).

Residues, ends and D or L forms follow the SMILES beside them. *: point of attachment. Cbz = O=C(OCc1ccccc1)*

Usually IC50 stands for the point on the concentration scale where inhibition reaches its midpoint. Low values mean inhibition by little substance, high ones a need for much substance.

For `N.N.[Cl][Pt][Cl]` [Cisplatin, cisplatin], the IC50 with DAOY cells [1] (setting [11]) was 740 ± 60 nM; in the experiment on DAOY cells [1] (setting [12]), 1800 ± 100 nM; in experiment [2] (setting [12]) it was greater than 5000 nM; in the experiment on D283MED cells [3] (setting [11]), greater than 2500 nM; in the experiment with D283MED cells [3] (setting [12]) it was 1200 ± 250 nM; in [6] (setting [12]), greater than 5000 nM. Besides, the “Apoptosis (%)” value in the experiment with DAOY cells [4] worked out at 13.3 ± 2.4%; in the experiment on D283MED cells [8] it was 55.3 ± 3.5%. In addition, the “G2/M (proportion of cells)” value was determined as 16.70% in the experiment on DAOY cells [5] and 19.10% in the experiment with D283MED cells [7].
For `NS(=O)(=O)OC[C@@H]1C[C@@H](n2ccc3c(N[C@H]4CCc5ccccc54)ncnc32)C[C@@H]1O` [MLN4924], the p21 protein expression entry in the experiment with p21 is “accumulated in a time‐dependent manner”.
Still for that read-out and setting: the entry for `CC(C)C[C@@H](C=O)NC(=O)[C@H](CC(C)C)NC(=O)[C@H](CC(C)C)NC(=O)OCc1ccccc1` [MG‐132] (Cbz-Leu-Leu-Leu-aldehyde) is “accumulated in a time‐dependent manner”; for `C[C@@H]1C[C@@H]([C@H](O)CC2CC(=O)NC(=O)C2)C(=O)[C@@H](C)C1` [cycloheximide] it is “decreased p21 protein levels after 30 minutes”.
On to `CC[C@]1(O)C[C@H]2CN(CCc3c([nH]c4ccccc34)[C@@](C(=O)OC)(c3cc4c(cc3OC)N(C=O)[C@H]3[C@@](O)(C(=O)OC)[C@H](OC(C)=O)[C@]5(CC)C=CCN6CC[C@]43[C@@H]65)C2)C1` [Vincristine], for which the IC50 is 3.47 ± 0.28 nM with DAOY cells [1] (Homo sapiens, vincristine 72 h, with or without siRNA transfection); 5.5 ± 0.61 nM in the experiment on DAOY cells [1] (setting [13]); greater than 5 nM in experiment [2] (Homo sapiens, chemotherapeutic agent alone or with IAP inhibitor (10 μmol/L)); greater than 5 nM with D283MED cells [3] (Homo sapiens, D283 Med, vincristine 72 h, with or without siRNA transfection); 5.7 ± 0.47 nM in the experiment on D283MED cells [3] (Homo sapiens, D283 Med, vincristine alone or with IAP inhibitor (10 μmol/L)); greater than 20 nM in experiment [6] (setting [13]). Besides, the “Apoptosis (%)” value in the experiment with DAOY cells [4] turned out to be 6.0 ± 2.1%; in the experiment on D283MED cells [8], 34.4 ± 2.4%. Moreover, the “G2/M (proportion of cells)” value with DAOY cells [5] was found to be 18.28%; in the experiment with D283MED cells [7] it was 21.20%.
With `CN[C@@H](C)C(=O)N[C@H](C(=O)N1CCC[C@H]1c1nc(C(=O)c2ccc(F)cc2)cs1)C1CCCCC1` [LCL161], in experiment [2], the “effect on BJ cell proliferation” value was “only mildly slowed”. Also, the figures for the “Apoptosis (%)” value with DAOY cells [4] and in the experiment on D283MED cells [8] were 17.2 ± 2.5% and 14.0 ± 0.4%, respectively. In addition, the inhibition at 30 µM in experiment [9] (read-out: inhibition of proliferation activities) was 50%. In experiment [6], the “effect on HA‐h cell proliferation” value was “only mildly slowed”. Further, the “protein levels of CDK1, CDK2, cyclin A and cyclin B1” value in experiment [10] is listed as “decreased”.
Consider `CN[C@@H](C)C(=O)N[C@H](C(=O)N1CC[C@H]2CCN(CCc3ccccc3)C[C@H]21)C1CCCCC1` [LBW242], for which the “effect on BJ cell proliferation” value in experiment [2] is on record as “only mildly slowed”. In addition, the cIAP1 protein expression entry in the experiment on cIAP1 was “effectively inhibited cIAP1 rather than cIAP2 or XIAP expression”. Further, the “ubiquitination of p21” value in the experiment with ubiquitination of p21 is reported as “no effect”. In addition, the “Apoptosis (%)” value with DAOY cells [4] stood at 22.6 ± 1.2%; in the experiment with D283MED cells [8], 20.1 ± 0.3%. The “inhibition of proliferation activities” value in experiment [9] was found to be 50%. Besides, in the experiment on p21 RNA, the “p21 transcriptional (RNA) levels” value is listed as “does not affect p21 RNA levels”. The “neddylation of p21” value in the experiment with neddylation of p21 is “reduced neddylation of p21”. For the same compound, the “effect on HA‐h cell proliferation” value in experiment [6] is reported as “only mildly slowed”. Also, the p21 protein expression result in the experiment with p21 is given as “enhances p21 expression”. For the same compound, the “protein levels of CDK1, CDK2, cyclin A and cyclin B1” value in experiment [10] was “decreased”.

The record behind these values is publication PMC6089189, “Targeting inhibitors of apoptosis proteins suppresses medulloblastoma cell proliferation via G2/M phase arrest and attenuated neddylation of p21” (Cancer Medicine, 2018).
